The text below walks through data of patent publication US20260132141A1, “PROTEIN PHOSPHATASE 2A ACTIVATORS” (University of Florida Research Foundation, Incorporated, priority 2022, published 2026).

Structures are written as SMILES.

In one experiment the target is PP2ACα (Homo sapiens, UniProt P67775). As to the kind of experiment: surface plasmon resonance (SPR) binding to catalytic subunit PP2ACα. Particulars: no KD could be calculated. From the text:
FIGS. 12A-12E depict surface plasmon resonance (SPR) analysis of the binding of PPA24, PPA27, and NSC49L to catalytic subunit, PP2ACα. FIG. 12A depicts surface plasmon resonance (SPR) studies of PPA24 binding to PP2ACα. FIG. 12B depicts surface plasmon resonance (SPR) studies of PPA27 binding to PP2ACα. FIG. 12C depicts the dissociation constant (KD) of PPA24 binding to PP2ACα. FIG. 12D depicts the dissociation constant (KD) of PPA27 binding to PP2ACα. FIG. 12E depicts surface plasmon resonance (SPR) studies of 100 μM of NSC49L binding to PP2ACα.
Thus, the binding affinity can be in the order of PPA24>PPA27>NSC49L>iHAP1.

For experiment [1], the system named is normal keratinocyte (HaCaT) cells. Kind of experiment: cell viability screen in noncancerous HaCaT cells. It is filed as cell-based. From the text: FIGS. 14A-14C depict cell viability screen of PPA24, PPA27, iHAP1, and NSC49L in normal keratinocyte (HaCaT) (FIG. 14A) and epithelial (FHC) (FIG. 14B) cells, where the compounds were able to showcase selectivity to cancerous cells vs. noncancerous cells. FIG. 14C depicts IC50 concentrations of the compounds in the cells. Analyses were done using GraphPad Prism 7.0 Software.
The compounds PPA24, PPA27, iHAP1, and NSC49L were screened in noncancerous cell lines to observe the selectivity these compounds have towards cancerous cells by assessing the differences in IC50 concentrations.

PP2ACα, sequence (P67775 whole entry): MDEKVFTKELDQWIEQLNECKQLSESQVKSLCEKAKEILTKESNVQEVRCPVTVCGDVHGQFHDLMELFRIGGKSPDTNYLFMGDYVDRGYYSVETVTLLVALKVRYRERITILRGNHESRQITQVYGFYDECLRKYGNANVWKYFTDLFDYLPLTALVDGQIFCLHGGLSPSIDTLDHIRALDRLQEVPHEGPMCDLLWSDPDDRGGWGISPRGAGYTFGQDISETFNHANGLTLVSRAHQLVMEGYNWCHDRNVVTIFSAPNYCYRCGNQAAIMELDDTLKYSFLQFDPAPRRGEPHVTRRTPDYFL

As to `ClC/C=C/C[N+]12CN3CN(CN(C3)C1)C2.[Cl-]` [NSC49L], the “SPR binding signal to PP2ACα” value at PP2ACα is on record as “only had a binding signal at 100 μM”. Moreover, the “selectivity: cell viability in HaCaT cells versus CRC cells” value in experiment [1] is given as “some selectivity towards cancerous cells”.

With `COc1ccc(C(=O)N2c3ccccc3Sc3ccc(Cl)cc32)cc1` [iHAP1], at PP2ACα, the “SPR binding signal to PP2ACα” value was “did not show a clear signal even at high concentrations”. Moreover, in experiment [1], the “selectivity: cell viability in HaCaT cells versus CRC cells” value was “do not appear to have a significant difference”.
